Data reported in patent US20260028338A1, “HETEROBIFUNCTIONAL COMPOUNDS AND METHODS OF TREATING DISEASE” (Halda Therapeutics OpCo, Inc., priority 2023, published 2026).

Assays:
[1] = system: T-Rex 293 cell line SC cells lacking increased expression of BCL6 protein; experiment: Cellular growth inhibition assay, T-Rex 293 SC cells without doxycycline (CellTiter-Glo); format: cell-based; details: T-Rex 293 SC cells not exposed to doxycycline (no increased BCL6 expression), 72 hours, CellTiter-Glo 2.0
[2] = system: T-Rex 293 cell line SC cells having increased expression of BCL6 protein; experiment: Cellular growth inhibition assay, T-Rex 293 SC cells with doxycycline (CellTiter-Glo); format: cell-based; details: T-Rex 293 SC cells with 10 ng/mL doxycycline (increased BCL6 expression), 72 hours, CellTiter-Glo 2.0
[3] = target: T1, His-tagged BRD4 BD2 (333-460) (Homo sapiens, UniProt O60885); experiment: AlphaLISA competition assay, BRD4 BD2; format: binding; details: BRD4-BD2, AlphaLISA competition with biotinylated histone H4K5/8/12/16(Ac) peptide, 20 nM
T1 construct: The same assay was developed for His-tagged BRD4 BD2 (333-460) and biotinylated histone H4K5/8/12/16(Ac) peptide
Outline: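 His-tagged BRD4 BD2 (333-460) and biotinylated H4K5/8/12/16(Ac) peptide at 20 nM final, in 20 mM HEPES pH 7.5, 100 mM NaCl, 0.5 mM TCEP, 0.1% BSA, 0.02% CHAPS. Compounds incubated 1 h at room temperature, then streptavidin acceptor and nickel chelate donor beads added. IC50 derived from AlphaLISA signal.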

Su-DHL-4 cell line = experiment: Cellular growth inhibition assay, Su-DHL-4 cells (CellTiter-Glo); format: cell-based; details: Homo sapiens; Su-DHL-4 cell line (DLBCL), 72 hours, CellTiter-Glo 2.0
Method: Exemplary compounds were tested for ability to inhibit the proliferation of Su-DHL-4 and Farage cells. Su-DHL-4 and Farage cells are commercially available diffuse large B cell lymphoma cell lines (DLBCL).
Su-DHL-4 and Farage cells were purchased from American Type Cell Culture (ATCC Cat #CRL-2957/CRL-2630) and then seeded on poly-D-lysine coated, black clear-bottom 384-well plates at 3000/well in 25 μL Roswell Park Memorial Institute media (RPMI-1640) supplemented with 10% w/w Fetal bovine serum (FBS) and 1% w/w Pen-Strep. Pen-Strep is a commercially available mixture of penicillin G and streptomycin, which is used in mammalian cell culture media to prevent bacterial contamination. Roswell Park Memorial Institute media (RPMI-1640) supplemented with 10% w/w fetal bovine serum (FBS), and 1% w/w Pen-Strep is herein referred to as Treatment Medium. Following seeding of cells in the plates, the plates were spun at 300×g for 30 seconds, then equilibrated to room temperature for 30 minutes, and then deposited in a humidified tissue culture incubator maintained at 37° C. with 5% CO2.
At 24 hours after seeding of the cells, dilutions of test compound were prepared in DMSO and dissolved in Treatment Medium, to achieve a final DMSO concentration of 0.5% w/w, thereby providing the Test Compound Solution. A 25 μL aliquot of the Test Compound Solution was added to cells in the well plates. An equal volume of a solution containing DMSO and Treatment Medium was used as a negative control. Following treatment of cells with Test Compound Solution or said equal volume of a solution containing DMSO and Treatment Medium, the plates were spun at 300×g for 30 seconds, and then left in an incubator for 72 hours.
At the end of the treatment duration, cell viability was quantified with CellTiter-Glo 2.0 reagent (Promega Cat #G9243). For this purpose, plates were equilibrated to room temperature for 30 minutes, and then 25 μL of CellTiter-Glo 2.0 reagent was added to cells in the plate wells. Plates were then agitated on a shaker for two minutes at 500 rpm and subsequently incubated at room temperature for 10 minutes. Following incubation, the plates were spun at 3000×g for 30 seconds, then sealed with an optical adhesive cover, and luminescence readings were measured with an EnVision Plate Reader (Perkin Elmer).
Data was normalized using zero luminescence for baseline. A four-parameter non-linear regression curve fit was applied to dose-response data in GraphPad Prism data analysis software to determine the half-maximal growth inhibitory concentration (GI50) for each test compound.

[4] = target: T2, His-tagged BRD4 BD1 (46-168) (Homo sapiens, UniProt O60885); experiment: AlphaLISA competition assay, BRD4 BD1; format: binding; details: BRD4-BD1, AlphaLISA competition with biotinylated histone H4K5/8/12/16(Ac) peptide, 10 nM
T2 construct: His-tagged BRD4 BD1 (46-168) and biotinylated histone H4K5/8/12/16(Ac) peptide
Outline: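 His-tagged BRD4 BD1 (46-168) and biotinylated H4K5/8/12/16(Ac) peptide, each 10 nM final, in 20 mM HEPES pH 7.5, 100 mM NaCl, 0.5 mM TCEP, 0.1% BSA, 0.02% CHAPS; compounds incubated 1 h at room temperature. Streptavidin acceptor and Ni-chelate donor beads added; IC50 from AlphaLISA signal.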

Farage cell line = experiment: Cellular growth inhibition assay, Farage cells (CellTiter-Glo); format: cell-based; details: Farage cell line (DLBCL), 72 hours, CellTiter-Glo 2.0
Outline: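 DLBCL lines Su-DHL-4 and Farage were seeded at 3000 cells/well in RPMI-1640 with 10% FBS. Compound dilutions (final DMSO 0.5%) were added 24 h later and incubated 72 h at 37C. Viability was read by CellTiter-Glo 2.0 luminescence, and GI50 came from four-parameter fits.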

[5] = target: T3, biotinylated BCL6 (5-129) (Homo sapiens, UniProt P41182); experiment: SPR assay for binding affinity to BCL6; details: Biacore 8K, 25° C., immobilized biotinylated BCL6 (5-129)
T3 construct: biotinylated BCL6 (5-129) was diluted in 10 mM HEPES pH 7.4; biotin (biotinylated)
Method: Exemplary compounds were tested for ability to bind to B-cell lymphoma 6 (BCL6) protein.
Binding studies by surface plasmon resonance (SPR) were performed using a Biacore 8K (Cytiva) instrument at 25° C. Briefly, biotinylated BCL6 (5-129) was diluted in 10 mM HEPES pH 7.4, 150 mM NaCl, 0.05% Surfactant P20, 0.5 mM TCEP, 3% DMSO to 1-5 μg/mL and was immobilized on an SA sensor chip (Cytiva, BR100032), resulting in surface densities at 1000-3000 resonance units (RUs). Test compounds were serially diluted five times in the same buffer and were injected to the immobilized surface. Kinetic determination experiments were performed using single-cycle kinetics with 110-120 s contact time, 1000-4000 s dissociation time, 30 μL/min flow rate. Binding data were analyzed by using Biacore insight evaluation software to determine KD values for test compounds.

IC50 [3] [nM]	GI50 (Su-DHL-4 cell line) [nM]	IC50 [4] [nM]	Kd [5] [nM]	Structure (SMILES)	GI50 [1] [nM]	GI50 [2] [nM]	GI50 (Farage cell line) [nM]
< 5	< 500	5 to 50	> 100	CNC(=O)COc1cc2cc(Nc3nc(N4CCC5(CC4)CC(Oc4ccc(C6=N[C@@H](Cc7ncco7)c7nnc(C)n7-c7sc(C)c(C)c76)cc4)C5)ncc3Cl)ccc2n(C)c1=O [Compound I-25, 2-[[6-[[5-chloro-2-[2-[4-[(9S)-4,5,13-trimethyl-9-(oxazol-2-ylmethyl)-3-thia-1,8,11,12-tetrazatricyclo[8.3.0.02,6]trideca-2 (6),4,7,10,12-pentaen-7-yl]phenoxy]-7-azaspiro[3.5]nonan-7-yl]pyrimidin-4-yl]amino]-1-methyl-2-oxo-3-quinolyl]oxy]-N-methyl-acetamide]	< 500	< 500	< 500
< 5	< 500	5 to 50	1 to 10	CNC(=O)COc1cc2cc(Nc3nc(N4CCN(CCN(C)C5CC(Oc6ccc(C(C)(C)O)cc6-c6cn(C)c(=O)c7[nH]ccc67)C5)CC4)ncc3Cl)ccc2n(C)c1=O (centres unmarked) [Compound I-18, 2-[[6-[[5-chloro-2-[4-[2-[[3-[4-(1-hydroxy-1-methyl-ethyl)-2-(6-methyl-7-oxo-1H-pyrrolo[2,3-c]pyridin-4-yl)phenoxy]cyclobutyl]-methyl-amino]ethyl]piperazin-1-yl]pyrimidin-4-yl]amino]-1-methyl-2-oxo-3-quinolyl]oxy]-N-methyl-acetamide]	500 to 1500	< 500	< 500
